Test results: patent US9850216B2 (H. LEE MOFFITT CANCER CENTER AND RESEARCH INSTITUTE, INC., priority 2013, dated 2017)
Values joined by “and” are separate entries in the source; they are usually repeats but may differ in a detail not shown here. Equal values may be shown once.

Legend:
ACK1 = ACK1 (Homo sapiens, UniProt Q07912); assay: ACK1 ELISA: phosphorylation of AKT-derived peptide; type: biochemical; conditions: 10 μM, Table 1, replicate values listed; for inhibition at 10 µM: read-out: % Inhibition at 10 μM (ELISA)
Chain of ACK1 (Q07912 whole entry): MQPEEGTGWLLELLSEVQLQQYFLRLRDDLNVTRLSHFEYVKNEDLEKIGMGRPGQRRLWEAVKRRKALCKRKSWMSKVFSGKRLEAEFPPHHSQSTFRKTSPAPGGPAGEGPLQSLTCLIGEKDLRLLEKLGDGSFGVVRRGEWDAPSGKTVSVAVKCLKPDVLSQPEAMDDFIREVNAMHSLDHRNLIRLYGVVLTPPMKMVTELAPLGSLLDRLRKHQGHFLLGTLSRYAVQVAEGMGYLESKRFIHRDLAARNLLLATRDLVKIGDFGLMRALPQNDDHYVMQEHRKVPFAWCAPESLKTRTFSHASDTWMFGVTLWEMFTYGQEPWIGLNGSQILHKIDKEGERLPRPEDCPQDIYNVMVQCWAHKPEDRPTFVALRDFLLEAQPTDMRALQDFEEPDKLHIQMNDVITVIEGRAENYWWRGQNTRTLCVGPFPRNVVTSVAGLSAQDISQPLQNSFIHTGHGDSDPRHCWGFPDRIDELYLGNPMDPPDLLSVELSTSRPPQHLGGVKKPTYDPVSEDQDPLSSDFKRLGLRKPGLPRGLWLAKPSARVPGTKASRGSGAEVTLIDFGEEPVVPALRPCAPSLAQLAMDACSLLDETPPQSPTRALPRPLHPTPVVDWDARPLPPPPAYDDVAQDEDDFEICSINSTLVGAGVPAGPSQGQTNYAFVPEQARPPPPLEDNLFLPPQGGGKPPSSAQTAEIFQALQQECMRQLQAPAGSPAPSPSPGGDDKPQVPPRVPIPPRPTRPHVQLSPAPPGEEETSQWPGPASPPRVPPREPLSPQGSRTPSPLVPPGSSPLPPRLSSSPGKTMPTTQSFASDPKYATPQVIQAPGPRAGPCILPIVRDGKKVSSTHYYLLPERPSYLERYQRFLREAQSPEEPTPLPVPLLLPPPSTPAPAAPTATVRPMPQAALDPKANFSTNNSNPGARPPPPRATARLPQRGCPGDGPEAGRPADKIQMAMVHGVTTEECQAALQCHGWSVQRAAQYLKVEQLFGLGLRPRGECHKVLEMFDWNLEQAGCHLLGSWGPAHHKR

Row | % Inhibition at 10 μM (ELISA) (ACK1; hydrochloride) | inhibition at 10 µM (ACK1) [%] | melting point | % Inhibition at 10 μM (ELISA) (ACK1) | Compound
1 | 42% and 48% | 41 | 158 °C (dec.) |  | Cl.O=C(Nc1c(F)cccc1Cl)c1cnc(Nc2ccc(O)c(Cl)c2)nc1NCC1CCCO1 (stereo not shown) [YL8-009-1, 2-(3-Chloro-4-hydroxyphenylamino)-N-(2-chloro-6-fluorophenyl)-4-((tetrahydrofuran-2-yl)methylamino)pyrimidine-5-carboxamide hydrochloride]
2 | 31% | 28 | 184 to 186 °C |  | CC(C)(C)OC(=O)N1CCN(c2ccc(Nc3ncc(C(=O)Nc4c(F)cccc4Cl)c(NCC4CCCO4)n3)cc2)CC1.Cl (stereo not shown) [YL9-161, tert-Butyl4-(4-(5-(2-chloro-6-fluorophenylcarbamoyl)-4-((tetrahydrofuran-2-yl)methylamino)pyrimidin-2-ylamino)phenyl)piperazine-1-carboxylate hydrochloride]
3 | 46% | 47 | 124 °C (dec.) |  | CC(C)(C)OC(=O)N1CCN(c2ccc(Nc3ncc(Br)c(NCC4CCCO4)n3)cc2)CC1.Cl (stereo not shown) [YL9-157, tert-Butyl4-(4-(5-bromo-4-((tetrahydrofuran-2-yl)methylamino)pyrimidin-2-ylamino)phenyl)piperazine-1-carboxylate hydrochloride]
4 |  |  | 238 °C (dec.) | 39% and 18% | CS(=O)(=O)c1ccccc1Nc1nc(Nc2ccc(O)cc2)ncc1C(=O)Nc1c(F)cccc1Cl [YL7-038, N-(2-chloro-6-fluorophenyl)-2-(4-hydroxyphenylamino)-4-(2-(methylsulfonyl)phenylamino)pyrimidine-5-carboxamide]
5 |  | 57 | 165 °C (dec.) | 58% | CCCS(=O)(=O)c1ccccc1Nc1nc(Nc2ccc(O)cc2)ncc1C(=O)Nc1c(F)cccc1Cl [YL7-055-2, N-(2-chloro-6-fluorophenyl)-2-(4-hydroxyphenylamino)-4-(2-(propylsulfonyl)phenylamino)pyrimidine-5-carboxamide]
6 |  | 0 | 197 to 200 °C |  | CCCSc1ccccc1Nc1nc(Cl)ncc1C(=O)Nc1c(F)cccc1Cl [YL7-051, 2-Chloro-N-(2-chloro-6-fluorophenyl)-4-(2-(propylthio)phenylamino)pyrimidine-5-carboxamide]
7 |  | 19 | 60.1 °C (dec.) | 14% | CN1CCN(c2ccc(Nc3nc(NCC4CCCO4)c4ccccc4n3)cc2)CC1 (stereo not shown) [DZ1-106, N2-(4-(4-methylpiperazin-1-yl)phenyl)-N4-((tetrahydrofuran-2-yl)methyl)quinazoline-2,4-diamine]
8 | 0% and −12% and 20% |  | 189 °C (dec.) |  | Cc1ccc(Nc2ncc(Br)c(NCC3CCCO3)n2)cc1F.Cl (stereo not shown) [YL7-172-4, 5-Bromo-N2-(3-fluoro-4-methylphenyl)-N4-((tetrahydrofuran-2-yl)methyl)pyrimidine-2,4-diamine hydrochloride]
9 |  |  | 248 to 249 °C | 1% and 13% | CCCSc1ccccc1Nc1nc(Nc2ccc(OC)cc2)ncc1C(=O)Nc1c(F)cccc1Cl [YL7-055-3, N-(2-chloro-6-fluorophenyl)-2-(4-methoxyphenylamino)-4-(2-(propylthio)phenylamino)pyrimidine-5-carboxamide]
10 |  | 85 | 220 °C (dec.) | 65% | CC(C)S(=O)(=O)c1ccccc1Nc1nc(Nc2ccc(N3CCOCC3)cc2)ncc1C(=O)Nc1c(F)cccc1Cl [YL7-097-1, N-(2-chloro-6-fluorophenyl)-4-(2-(isopropylsulfonyl)phenylamino)-2-(4-morpholinophenylamino)pyrimidine-5-carboxamide]
11 |  | 0 | 202 to 205 °C |  | CC(C)Sc1ccccc1Nc1nc(Cl)ncc1C(=O)Nc1c(F)cccc1Cl [YL7-040, 2-Chloro-N-(2-chloro-6-fluorophenyl)-4-(2-(isopropylthio)phenylamino)pyrimidine-5-carboxamide]
